What follows are compounds tested on NMNAT2 (assay: NMNAT2-Hibit nano-luciferase activity in stably transfected U87MG cells, various concentrations, 24 hours). Settings: U87MG cells stably transfected with NMNAT2-Hibit luc plasmid.
Type: cell-based
Protocol: Selected compounds were tested in vitro. U87MG cells were stably transfected with NMNAT2-Hibit luc plasmid. Cells were treated with a test compound at various concentrations for 24 hours. Cells were then collected and assayed for nano-luciferase activity.
For `O=C1CC(c2cn(Cc3cccc(F)c3)c3ccccc23)CCN1Cc1ccccc1F` (stereo not drawn) [BC20318], the “E: compound efficacy for NMNAT2 activation (concentration giving >25% increase in NMNAT2 luciferase activity)” value was “+ (“+” >25% increase in NMNAT2 luciferase activity at >25 μM.)”.
With `O=C1CC(c2cn(Cc3cccc(F)c3)c3ccccc23)CCN1Cc1cccc(F)c1` (stereo not drawn) [BC20319] the “E: compound efficacy for NMNAT2 activation (concentration giving >25% increase in NMNAT2 luciferase activity)” value was “+ (“+” >25% increase in NMNAT2 luciferase activity at >25 μM.)”.
For `Cc1ccccc1CN1CCC(c2cn(Cc3cccc(F)c3)c3ccccc23)CC1=O` (stereo not drawn) [BC20320], the “E: compound efficacy for NMNAT2 activation (concentration giving >25% increase in NMNAT2 luciferase activity)” value was “+ (“+” >25% increase in NMNAT2 luciferase activity at >25 μM.)”.
For `Cc1cccc(CN2CCC(c3cn(Cc4cccc(F)c4)c4ccccc34)CC2=O)c1` (stereo not drawn) [BC20321], the “E: compound efficacy for NMNAT2 activation (concentration giving >25% increase in NMNAT2 luciferase activity)” value was “+ (“+” >25% increase in NMNAT2 luciferase activity at >25 μM.)”.
With `O=C1CC(c2cn(Cc3cccc(F)c3)c3ccccc23)CCN1Cc1ccncc1` (stereo not drawn) [BC20322] the “E: compound efficacy for NMNAT2 activation (concentration giving >25% increase in NMNAT2 luciferase activity)” value was “++ (“++” >25% increase in NMNAT2 luciferase activity at >1 μM ≤25 μM.)”.
For `O=C(Cn1c2c(c3ccccc31)CN(C(=O)NCc1ccco1)CC2)NCc1ccco1` [BC20327], the “E: compound efficacy for NMNAT2 activation (concentration giving >25% increase in NMNAT2 luciferase activity)” value was “+ (“+” >25% increase in NMNAT2 luciferase activity at >25 μM.)”.
`O=C(Cn1c2c(c3ccccc31)CN(C(=O)NCC1CCCO1)CC2)NCc1ccco1` (stereo not drawn) [BC20328] was tested, and the “E: compound efficacy for NMNAT2 activation (concentration giving >25% increase in NMNAT2 luciferase activity)” value was “+ (“+” >25% increase in NMNAT2 luciferase activity at >25 μM.)”.
`O=C(Cn1c2c(c3ccccc31)CN(C(=O)NCCc1ccccc1)CC2)NCc1ccco1` [BC20329] was tested, and the “E: compound efficacy for NMNAT2 activation (concentration giving >25% increase in NMNAT2 luciferase activity)” value was “+ (“+” >25% increase in NMNAT2 luciferase activity at >25 μM.)”.
With `COc1ccc(CNC(=O)N2CCc3c(c4ccccc4n3CC(=O)NCc3ccco3)C2)cc1` [BC20330] the “E: compound efficacy for NMNAT2 activation (concentration giving >25% increase in NMNAT2 luciferase activity)” value was “++ (“++” >25% increase in NMNAT2 luciferase activity at >1 μM ≤25 μM.)”.
With `Cc1ccc(CNC(=O)N2CCc3c(c4ccccc4n3Cc3cccc(F)c3)C2)cc1` [BC20331] the “E: compound efficacy for NMNAT2 activation (concentration giving >25% increase in NMNAT2 luciferase activity)” value was “+ (“+” >25% increase in NMNAT2 luciferase activity at >25 μM.)”.
In the case of `COc1ccc(CNC(=O)N2CCc3c(c4ccccc4n3Cc3cccc(F)c3)C2)cc1` [BC20332], the “E: compound efficacy for NMNAT2 activation (concentration giving >25% increase in NMNAT2 luciferase activity)” value is reported as “++ (“++” >25% increase in NMNAT2 luciferase activity at >1 μM ≤25 μM.)”.
`Fc1cccc(Cn2c3c(c4ccccc42)CNCC3)c1` [BC20333] was tested, and the “E: compound efficacy for NMNAT2 activation (concentration giving >25% increase in NMNAT2 luciferase activity)” value was “++ (“++” >25% increase in NMNAT2 luciferase activity at >1 μM ≤25 μM.)”.
`O=C(NCc1cccc(F)c1)N1CCc2c(c3ccccc3n2Cc2ccncc2)C1` [BC20334] was tested, and the “E: compound efficacy for NMNAT2 activation (concentration giving >25% increase in NMNAT2 luciferase activity)” value was “+ (“+” >25% increase in NMNAT2 luciferase activity at >25 μM.)”.
In the case of `O=C(NCCc1ccccc1)N1CCc2c(c3ccccc3n2Cc2ccncc2)C1` [BC20335], the “E: compound efficacy for NMNAT2 activation (concentration giving >25% increase in NMNAT2 luciferase activity)” value is reported as “+ (“+” >25% increase in NMNAT2 luciferase activity at >25 μM.)”.
With `Cc1cccc(NC(=O)N2CCc3c(c4ccccc4n3Cc3ccncc3)C2)c1C` [BC20336] the “E: compound efficacy for NMNAT2 activation (concentration giving >25% increase in NMNAT2 luciferase activity)” value was “+ (“+” >25% increase in NMNAT2 luciferase activity at >25 μM.)”.
For `Cc1ccc(CNC(=O)N2CCc3c(c4ccccc4n3Cc3ccncc3)C2)cc1` [BC20337], the “E: compound efficacy for NMNAT2 activation (concentration giving >25% increase in NMNAT2 luciferase activity)” value was “+ (“+” >25% increase in NMNAT2 luciferase activity at >25 μM.)”.
In the case of `COc1ccc(CNC(=O)N2CCc3c(c4ccccc4n3Cc3ccncc3)C2)cc1` [BC20338], the “E: compound efficacy for NMNAT2 activation (concentration giving >25% increase in NMNAT2 luciferase activity)” value is reported as “+ (“+” >25% increase in NMNAT2 luciferase activity at >25 μM.)”.
`O=C1CC(c2cn(Cc3cccc(F)c3)c3ccccc23)CCN1` (stereo not drawn) [BC20339] was tested, and the “E: compound efficacy for NMNAT2 activation (concentration giving >25% increase in NMNAT2 luciferase activity)” value was “+ (“+” >25% increase in NMNAT2 luciferase activity at >25 μM.)”.
In the case of `O=C1CC(c2cn(Cc3cccc(F)c3)c3ccccc23)CCN1CCOc1ccc(F)cc1` (stereo not drawn) [BC20340], the “E: compound efficacy for NMNAT2 activation (concentration giving >25% increase in NMNAT2 luciferase activity)” value is reported as “+ (“+” >25% increase in NMNAT2 luciferase activity at >25 μM.)”.
`O=C1c2cccc3c2c(cn3Cc2cccc(F)c2)CCN1CCOc1ccccc1` [BC20341] was tested, and the “E: compound efficacy for NMNAT2 activation (concentration giving >25% increase in NMNAT2 luciferase activity)” value was “+ (“+” >25% increase in NMNAT2 luciferase activity at >25 μM.)”.
With `O=C1c2cccc3c2c(cn3Cc2cccc(F)c2)CCN1CCOc1ccc(F)cc1` [BC20342] the “E: compound efficacy for NMNAT2 activation (concentration giving >25% increase in NMNAT2 luciferase activity)” value was “+ (“+” >25% increase in NMNAT2 luciferase activity at >25 μM.)”.
For `Cc1ccc(C)c(Cn2cc3c4c(cccc42)C(=O)N(CCOc2ccccc2)CC3)c1` [BC20343], the “E: compound efficacy for NMNAT2 activation (concentration giving >25% increase in NMNAT2 luciferase activity)” value was “+ (“+” >25% increase in NMNAT2 luciferase activity at >25 μM.)”.
In the case of `Cc1ccc(C)c(Cn2c(C(F)F)c(CCC(=O)NCc3ccco3)c3ccccc32)c1` [BC20354], the “E: compound efficacy for NMNAT2 activation (concentration giving >25% increase in NMNAT2 luciferase activity)” value is reported as “+ (“+” >25% increase in NMNAT2 luciferase activity at >25 μM.)”.
For `O=C(Cn1cc2c3c(cccc31)C(=O)N(Cc1cccc(F)c1)CC2)NCc1cccc(F)c1` [BC20355], the “E: compound efficacy for NMNAT2 activation (concentration giving >25% increase in NMNAT2 luciferase activity)” value was “++ (“++” >25% increase in NMNAT2 luciferase activity at >1 μM ≤25 μM.)”.
With `Cc1ccccc1CNC(=O)Cn1cc2c3c(cccc31)C(=O)N(Cc1cccc(F)c1)CC2` [BC20356] the “E: compound efficacy for NMNAT2 activation (concentration giving >25% increase in NMNAT2 luciferase activity)” value was “+ (“+” >25% increase in NMNAT2 luciferase activity at >25 μM.)”.
In the case of `O=C(NCc1ccco1)N1CCc2c(c3ccccc3n2Cc2ccncc2)C1` [BC20357], the “E: compound efficacy for NMNAT2 activation (concentration giving >25% increase in NMNAT2 luciferase activity)” value is reported as “++ (“++” >25% increase in NMNAT2 luciferase activity at >1 μM ≤25 μM.)”.
For `O=C(NCC1CCCO1)N1CCc2c(c3ccccc3n2Cc2ccncc2)C1` (stereo not drawn) [BC20358], the “E: compound efficacy for NMNAT2 activation (concentration giving >25% increase in NMNAT2 luciferase activity)” value was “+ (“+” >25% increase in NMNAT2 luciferase activity at >25 μM.)”.
With `O=C(Nc1cc(F)ccc1F)N1CCc2c(c3ccccc3n2Cc2cccc(F)c2)C1` [BC20361] the “E: compound efficacy for NMNAT2 activation (concentration giving >25% increase in NMNAT2 luciferase activity)” value was “++ (“++” >25% increase in NMNAT2 luciferase activity at >1 μM ≤25 μM.)”.
`O=C(Nc1cccc(C(F)(F)F)c1)N1CCc2c(c3ccccc3n2Cc2cccc(F)c2)C1` [BC20362] was tested, and the “E: compound efficacy for NMNAT2 activation (concentration giving >25% increase in NMNAT2 luciferase activity)” value was “++ (“++” >25% increase in NMNAT2 luciferase activity at >1 μM ≤25 μM.)”.
`Cc1ccc(C)c(Cn2c(C(F)F)c(CCC(=O)NCc3ccc(C)o3)c3ccccc32)c1` [BC20367] was tested, and the “E: compound efficacy for NMNAT2 activation (concentration giving >25% increase in NMNAT2 luciferase activity)” value was “++ (“++” >25% increase in NMNAT2 luciferase activity at >1 μM ≤25 μM.)”.
With `O=C(NCc1ccco1)C1CCCc2c1c1ccccc1n2Cc1cccc(F)c1` (stereo not drawn) [BC20368] the “E: compound efficacy for NMNAT2 activation (concentration giving >25% increase in NMNAT2 luciferase activity)” value was “++ (“++” >25% increase in NMNAT2 luciferase activity at >1 μM ≤25 μM.)”.
`Cc1ccc(CNC(=O)C2CCCc3c2c2ccccc2n3Cc2cccc(F)c2)o1` (stereo not drawn) [BC20369] was tested, and the “E: compound efficacy for NMNAT2 activation (concentration giving >25% increase in NMNAT2 luciferase activity)” value was “++ (“++” >25% increase in NMNAT2 luciferase activity at >1 μM ≤25 μM.)”.
For `O=C(NCC1CCCO1)C1CCCc2c1c1ccccc1n2Cc1cccc(F)c1` (stereo not drawn) [BC20370], the “E: compound efficacy for NMNAT2 activation (concentration giving >25% increase in NMNAT2 luciferase activity)” value was “+ (“+” >25% increase in NMNAT2 luciferase activity at >25 μM.)”.
For `O=C(NCc1cccc(F)c1)C1CCCc2c1c1ccccc1n2Cc1cccc(F)c1` (stereo not drawn) [BC20371], the “E: compound efficacy for NMNAT2 activation (concentration giving >25% increase in NMNAT2 luciferase activity)” value was “++ (“++” >25% increase in NMNAT2 luciferase activity at >1 μM ≤25 μM.)”.
For `Cc1ccccc1CNC(=O)C1CCCc2c1c1ccccc1n2Cc1cccc(F)c1` (stereo not drawn) [BC20372], the “E: compound efficacy for NMNAT2 activation (concentration giving >25% increase in NMNAT2 luciferase activity)” value was “+ (“+” >25% increase in NMNAT2 luciferase activity at >25 μM.)”.
In the case of `Cc1cccc(CNC(=O)C2CCCc3c2c2ccccc2n3Cc2cccc(F)c2)c1` (stereo not drawn) [BC20373], the “E: compound efficacy for NMNAT2 activation (concentration giving >25% increase in NMNAT2 luciferase activity)” value is reported as “+ (“+” >25% increase in NMNAT2 luciferase activity at >25 μM.)”.
In the case of `COc1ccccc1CNC(=O)C1CCCc2c1c1ccccc1n2Cc1cccc(F)c1` (stereo not drawn) [BC20374], the “E: compound efficacy for NMNAT2 activation (concentration giving >25% increase in NMNAT2 luciferase activity)” value is reported as “+ (“+” >25% increase in NMNAT2 luciferase activity at >25 μM.)”.
For `COc1cccc(CNC(=O)C2CCCc3c2c2ccccc2n3Cc2cccc(F)c2)c1` (stereo not drawn) [BC20375], the “E: compound efficacy for NMNAT2 activation (concentration giving >25% increase in NMNAT2 luciferase activity)” value was “+ (“+” >25% increase in NMNAT2 luciferase activity at >25 μM.)”.
With `O=C(c1ccco1)N1CCN(C(=O)C2CCCc3c2c2ccccc2n3Cc2cccc(F)c2)CC1` (stereo not drawn) [BC20376] the “E: compound efficacy for NMNAT2 activation (concentration giving >25% increase in NMNAT2 luciferase activity)” value was “+ (“+” >25% increase in NMNAT2 luciferase activity at >25 μM.)”.
In the case of `CC(Cc1ccco1)NC(=O)C1CCCc2c1c1ccccc1n2Cc1cccc(F)c1` (stereo not drawn) [BC20377], the “E: compound efficacy for NMNAT2 activation (concentration giving >25% increase in NMNAT2 luciferase activity)” value is reported as “+ (“+” >25% increase in NMNAT2 luciferase activity at >25 μM.)”.
`O=C(NCCc1ccccc1)C1CCCc2c1c1ccccc1n2Cc1cccc(F)c1` (stereo not drawn) [BC20378] was tested, and the “E: compound efficacy for NMNAT2 activation (concentration giving >25% increase in NMNAT2 luciferase activity)” value was “++ (“++” >25% increase in NMNAT2 luciferase activity at >1 μM ≤25 μM.)”.
`O=C(NCc1cccnc1)C1CCCc2c1c1ccccc1n2Cc1cccc(F)c1` (stereo not drawn) [BC20379] was tested, and the “E: compound efficacy for NMNAT2 activation (concentration giving >25% increase in NMNAT2 luciferase activity)” value was “++ (“++” >25% increase in NMNAT2 luciferase activity at >1 μM ≤25 μM.)”.
In the case of `O=C(NCc1ccncc1)C1CCCc2c1c1ccccc1n2Cc1cccc(F)c1` (stereo not drawn) [BC20380], the “E: compound efficacy for NMNAT2 activation (concentration giving >25% increase in NMNAT2 luciferase activity)” value is reported as “+ (“+” >25% increase in NMNAT2 luciferase activity at >25 μM.)”.
`CCCCN(CC)Cc1ccc(CNC(=O)C2CCCc3c2c2ccccc2n3Cc2cccc(F)c2)o1` (stereo not drawn) [BC20381] was tested, and the “E: compound efficacy for NMNAT2 activation (concentration giving >25% increase in NMNAT2 luciferase activity)” value was “++ (“++” >25% increase in NMNAT2 luciferase activity at >1 μM ≤25 μM.)”.
`O=C(C1CCCc2c1c1ccccc1n2Cc1cccc(F)c1)N(CCCN1CCOCC1)Cc1ccco1` (stereo not drawn) [BC20382] was tested, and the “E: compound efficacy for NMNAT2 activation (concentration giving >25% increase in NMNAT2 luciferase activity)” value was “++ (“++” >25% increase in NMNAT2 luciferase activity at >1 μM ≤25 μM.)”.
